From patent US6225334A (priority 1996, dated 2001)
Read-outs that look alike come from different tables or passages of the source.

Tests used:
[1] = tested on: Phytophthora infestans; type: in vivo; conditions: 3 days after the inoculation, tomato, protective
[2] = logP (HPLC); type: physicochemical
[3] = tested on: greenhouse red spider mite (Tetranychus urticae); assay: Tetranychus-Test (OP-resistant/dip treatment); conditions: 168 h, read-out: kill
Description: 7.5 parts by weight of dimethylformamide
100 parts by weight of methanol
Emulsifier: 2.5 parts by weight of alkylaryl polyglycol ether
After the desired period of time, the activity in % is determined. 100% means that all spider mites have been killed; 0% means that none of the spider mites have been killed.

[4] = tested on: beet army-worm (Spodoptera frugiperda); assay: Spodoptera test; type: in vivo; conditions: 216 h, active compound concentration of 0.05%, after 9 days, larvae L2-L3 on synthetic feed, read-out: kill
Description: 100 parts by weight of acetone
1900 parts by weight of methanol
A stated amount of the preparation of active compound of the desired concentration is pipetted onto a standardized amount of synthetic feed. In 3 replications, one larva (L2 -L3) each of the beet army-worm (Spodoptera frugiperda) is placed on the feed.
After the desired period of time, the kill in % is determined.

[5] = tested on: Plasmopara viticola; assay: Plasmopara-Test (Grapevines)/protective; type: in vivo; conditions: application rate of 50 g/ha, 6 days after the inoculation, protective
[6] = first of two values printed (x/y)

Row | SMILES | chromatographic logP [2, 6] | chromatographic logP ([2]; second of two values) | also measured
1 | CON=C(C(=O)NCCc1ccc(OC)c(OC)c1)c1ccc2c(c1)CCc1ccccc1C2 [IV-2] | 3.61 | 3.87 | efficacy compared to the untreated control ([1]; application rate of 50 g/ha): 96%
2 | COc1ccc(CCNC(=O)C(=NOC(=O)OC2CCCCC2)c2ccc3c(c2)CCCC3)cc1OC [Example I-6] | 4.2 | 4.62 | 
3 | CCON=C(C(=S)NCCc1ccc(OC)c(OC)c1)c1ccc(Cl)cc1 [Example II-1, N-[2-(3,4-dimethoxyphenyl)-ethyl]-2-ethoximino-2-(4-chlorophenyl)-thioacetamide] |  |  | chromatographic logP ([2]; e isomer): 3.73; chromatographic logP ([2]; z isomer): 4.03
4 | CCON=C(C(=O)NCCc1ccc(OC)c(OC)c1)c1ccc2c(c1)OCC2 [Example III-1, N-[2-(3,4dimethoxyphenyl)-ethyl]-2-(2,3-dihydrobenzofuran-6-yl)2-ethoximino-acetamide] |  |  | efficacy compared to the untreated control ([1]; application rate of 500 g/ha): 95%
5 | CCc1ccc(C(=NOC(=O)OC)C(=O)NCCc2ccc(OC)c(OC)c2)cc1 [Example I-14] | 2.73 | 2.94 | mortality at 0.05 % [3]: 100%
6 | CCON=C(C(=S)NCCc1ccc(OC)c(OC)c1)c1ccc2c(c1)CCCC2 [II-2] | 4.13 | 4.41 | 
7 | CCON=C(C(=O)NCCc1ccc(OC)c(OC)c1)c1ccc(Cl)cc1 [Example II-II-1] |  |  | chromatographic logP ([2]; e isomer): 3.07; chromatographic logP ([2]; z isomer): 3.34
8 | CCc1ccc(C(=NOC)C(=S)NCCc2ccc(OC)c(OC)c2)cc1 [II-4] | 3.5 | 3.77 | mortality at 0.05 % [4]: 100%
9 | COc1ccc(CCNC(=O)C(=NOC(=O)Oc2ccccc2)c2ccc3c(c2)CCCC3)cc1OC [Example I-5] | 3.82 | 4.09 | 
10 | COc1ccc(CCNC(=O)C(=NOC(=O)c2ccccc2)c2ccc3c(c2)CCCC3)cc1OC [Example I-7] | 3.69 | 4.1 | 
11 | COC(=O)ON=C(C(=O)NCCc1ccc(OC)c(OC)c1)c1ccc2c(c1)CCC2 [Example I-11] | 2.78 | 2.97 | 
12 | CCc1ccc(C(=NOC(C)=O)C(=O)NCCc2ccc(OC)c(OC)c2)cc1 [Example I-16] | 2.42 | 2.6 | 
13 | CCOC(=O)ON=C(C(=O)NCCc1ccc(OC)c(OC)c1)c1ccc(CC)cc1 [Example I-15] |  |  | chromatographic logP ([2]; single value given): 2.98
14 | CON=C(C(=O)NCCc1ccc(OC)c(OC)c1)c1ccc2c(c1)Cc1ccccc1C2 [IV-4] | 3.31 | 3.68 | 
15 | CCON=C(C(=S)NCCc1ccc(OC)c(OC)c1)c1ccc(Br)cc1 [II-5] | 3.82 | 4.14 | 
16 | CCON=C(C(=S)NCCc1ccc(OC)c(OC)c1)c1ccc2c(c1)CCC2 [II-10] | 3.87 | 4.13 | 
17 | CCON=C(C(=S)NCCc1ccc(OC)c(OC)c1)c1cccc(CC)c1 [II-8] | 3.82 | 4.09 | 
18 | CCOC(=O)ON=C(C(=O)NCCc1ccc(OC)c(OC)c1)c1ccc2c(c1)CCC2 [Example I-13] | 3.04 | 3.27 | 
19 | CCON=C(C(=O)NCCc1ccc(OC)c(OC)c1)c1ccc2c(c1)CCc1ccccc1C2 [IV-3] | 3.91 | 4.2 | efficacy compared to the untreated control ([1]; application rate of 50 g/ha): 96%
20 | CON=C(C(=S)NCCc1ccc(OC)c(OC)c1)c1ccc(C)cc1 [II-3] | 3.15 | 3.41 | 
21 | CCOC(=O)ON=C(C(=O)NCCc1ccc(OC)c(OC)c1)c1ccc2c(c1)CCCC2 [Example I-3] | 3.19 | 3.55 | 
22 | COc1ccc(CCNC(=O)C(=NOC(C)=O)c2ccc3c(c2)CCCC3)cc1OC [Example I-1, N-[(3,4-dimethoxyphenyl)-2-ethyl]-2-acetoxyimino-2-(2-tetrahydronaphthyl)-acetamide] |  |  | efficacy compared to the untreated control ([1]; application rate of 50 g/ha): 95%
23 | COc1ccc(CCNC(=O)C(=NOC(=O)OC(C)C)c2ccc3c(c2)CCCC3)cc1OC [Example I-4] | 3.55 | 3.84 | 
24 | CON=C(C(=O)NCCc1ccc(OC)c(OC)c1)c1ccc2c(c1)OCC2 [III-2] | 2.24 | 2.46 | 
25 | COc1ccc(CCNC(=O)C(=NOC(C)=O)c2ccc3c(c2)CCC3)cc1OC [Example I-12] | 2.65 | 2.87 | 
26 | CCON=C(C(=O)NCCc1ccc(OC)c(OC)c1)c1ccc2c(c1)Cc1ccccc1C2 [Example IV-1] |  |  | chromatographic logP ([2]; e isomer): 3.62; chromatographic logP ([2]; z isomer): 4
27 | CON=C(C(=S)NCCc1ccc(OC)c(OC)c1)c1ccc(Br)cc1 [II-6] | 3.5 | 3.8 | efficacy compared to the untreated control [5]: 89%
28 | CCOC(=O)ON=C(C(=O)NCCc1ccc(OC)c(OC)c1)c1ccc(Br)cc1 [Example I-10] |  |  | chromatographic logP ([2]; single value given): 3.19
